Test results: PubChem BioAssay AID248 (DTP/NCI, 2004)
“And” between values parts separate entries of the source, which are not always exact repeats. Equal entries are not always repeated. Inconclusive results and toxic doses are left out. Rule as the data show it: active = T/C of 150% or more; inactive = T/C below 125%.

Tested on: L1210 leukemia ip in BDF1 mice, survival T/C
Test: NCI In Vivo Anticancer Drug Screen. Data for tumor model L1210 Leukemia (intraperitoneal) in B6D2F1 (BDF1) mice
Settings: endpoint: mean survival time, higher = longer survival
How it was run: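 Tumor cells were implanted, animals were treated, and survival was followed. The result divides the treated measurement by the vehicle-control measurement.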

[1] = dose: 100.0 mg/kg/injection, schedule: Q04DX003 (ip), vehicle: saline
[2] = dose: 100.0 mg/kg/injection, schedule: Q04DX002 (ip), vehicle: saline
[3] = dose: 100.0 mg/kg/injection, schedule: Q04DX003 (ip), vehicle: Klucel (hydroxypropylcellulose) (HPC)
[4] = dose: 200.0 mg/kg/injection, schedule: Q04DX003 (ip), vehicle: Klucel (hydroxypropylcellulose) (HPC)
[5] = dose: 400.0 mg/kg/injection, schedule: Q04DX003 (ip), vehicle: Klucel (hydroxypropylcellulose) (HPC)

Measured: T/C

CN(C)CCCN1c2ccccc2Sc2ccc(Cl)cc21
inactive: dose: 0.77 mg/kg/injection, schedule: Q03HX024 (ip), vehicle: saline 104 % of control | dose: 0.78 mg/kg/injection, schedule: Q04DX024 (oral), vehicle: saline 98 % of control | dose: 1.55 mg/kg/injection, schedule: Q03HX024 (ip), vehicle: saline 109 % of control | dose: 1.56 mg/kg/injection, schedule: Q04DX003 (ip), vehicle: saline 101 % of control | dose: 1.56 mg/kg/injection, schedule: Q04DX024 (oral), vehicle: saline 90 % of control | dose: 2.0 mg/kg/injection, schedule: Q01DX009 (ip), vehicle: saline 95 % of control and 113 % of control | dose: 2.5 mg/kg/injection, schedule: Q01DX015 (ip), vehicle: saline 103 % of control | dose: 3.1 mg/kg/injection, schedule: Q03HX024 (ip), vehicle: saline 102 % of control | dose: 3.12 mg/kg/injection, schedule: Q01DX009 (ip), vehicle: saline 111 % of control | dose: 3.12 mg/kg/injection, schedule: Q04DX003 (ip), vehicle: saline 101 % of control | dose: 3.12 mg/kg/injection, schedule: Q04DX024 (oral), vehicle: saline 104 % of control | dose: 4.0 mg/kg/injection, schedule: Q01DX009 (ip), vehicle: saline 93 % of control and 106 % of control | dose: 5.0 mg/kg/injection, schedule: Q01DX015 (ip), vehicle: saline 105 % of control | dose: 6.2 mg/kg/injection, schedule: Q03HX024 (ip), vehicle: saline 109 % of control | dose: 6.25 mg/kg/injection, schedule: Q04DX003 (ip), vehicle: saline 102 % of control and 103 % of control | dose: 8.0 mg/kg/injection, schedule: Q01DX009 (ip), vehicle: saline 106 % of control and 120 % of control | dose: 8.0 mg/kg/injection, schedule: Q01DX015 (ip), vehicle: saline 104 % of control | dose: 10.0 mg/kg/injection, schedule: Q01DX009 (ip), vehicle: saline 111 % of control | dose: 10.0 mg/kg/injection, schedule: Q01DX015 (ip), vehicle: saline 105 % of control | dose: 12.0 mg/kg/injection, schedule: Q01DX015 (ip), vehicle: saline 115 % of control | dose: 12.4 mg/kg/injection, schedule: Q03HX024 (ip), vehicle: saline 116 % of control | dose: 12.5 mg/kg/injection, schedule: Q01DX001 (ip), vehicle: saline 94 % of control | dose: 12.5 mg/kg/injection, schedule: Q01DX009 (ip), vehicle: saline 110 % of control and 102 % of control | dose: 12.5 mg/kg/injection, schedule: Q04DX003 (ip), vehicle: saline 109 % of control [middle of 4 runs] | dose: 16.0 mg/kg/injection, schedule: Q01DX009 (ip), vehicle: saline 87 % of control | dose: 18.0 mg/kg/injection, schedule: Q01DX015 (ip), vehicle: saline 121 % of control | dose: 18.75 mg/kg/injection, schedule: Q01DX001 (ip), vehicle: saline 113 % of control and 123 % of control | dose: 18.75 mg/kg/injection, schedule: Q01DX009 (ip), vehicle: saline 101 % of control | dose: 20.0 mg/kg/injection, schedule: Q01DX009 (ip), vehicle: saline 108 % of control | dose: 20.0 mg/kg/injection, schedule: Q01DX Z (ip), vehicle: methylcellulose (MC) 108 % of control | dose: 20.0 mg/kg/injection, schedule: Q04DX003 (ip), vehicle: saline 115 % of control | dose: 25.0 mg/kg/injection, schedule: Q01DX001 (ip), vehicle: saline 101 % of control | dose: 25.0 mg/kg/injection, schedule: Q01DX009 (ip), vehicle: saline 105 % of control | dose: 25.0 mg/kg/injection, schedule: Q04DX003 (ip), vehicle: saline 109 % of control [middle of 4 runs] | dose: 26.0 mg/kg/injection, schedule: Q04DX003 (ip), vehicle: saline 121 % of control | dose: 27.0 mg/kg/injection, schedule: Q01DX015 (ip), vehicle: saline 106 % of control | dose: 30.0 mg/kg/injection, schedule: Q01DX Z (ip), vehicle: methylcellulose (MC) 117 % of control | dose: 37.5 mg/kg/injection, schedule: Q01DX001 (ip), vehicle: saline 120 % of control | dose: 37.5 mg/kg/injection, schedule: Q01DX009 (ip), vehicle: saline 120 % of control | dose: 40.0 mg/kg/injection, schedule: Q01DX015 (ip), vehicle: saline 112 % of control | dose: 40.0 mg/kg/injection, schedule: Q04DX003 (ip), vehicle: saline 106 % of control | dose: 45.0 mg/kg/injection, schedule: Q01DX Z (ip), vehicle: methylcellulose (MC) 100 % of control | dose: 50.0 mg/kg/injection, schedule: Q01DX001 (ip), vehicle: saline 108 % of control | dose: 50.0 mg/kg/injection, schedule: Q01DX009 (ip), vehicle: saline 121 % of control | dose: 50.0 mg/kg/injection, schedule: Q04DX003 (ip), vehicle: saline 101 % of control and 113 % of control | dose: 60.0 mg/kg/injection, schedule: Q01DX015 (ip), vehicle: saline 117 % of control | dose: 67.5 mg/kg/injection, schedule: Q01DX Z (ip), vehicle: methylcellulose (MC) 99 % of control | dose: 75.0 mg/kg/injection, schedule: Q04DX003 (ip), vehicle: saline 116 % of control | dose: 90.0 mg/kg/injection, schedule: Q01DX015 (ip), vehicle: saline 104 % of control | dose: 100.0 mg/kg/injection, schedule: Q01DX009 (ip), vehicle: saline 89 % of control | [1] 99 % of control

C(=C\c1ccccc1)/CN1CCOCC1
inactive: dose: 25.0 mg/kg/injection, schedule: Q04DX002 (ip), vehicle: saline 94 % of control | dose: 50.0 mg/kg/injection, schedule: Q04DX002 (ip), vehicle: saline 94 % of control | [2] 105 % of control

O=[N+]([O-])c1ccc2c(c1)Cc1cc(O)c(I)cc1-2
inactive: dose: 100.0 mg/kg/injection, schedule: Q01DX001 (ip), vehicle: carboxymethylcellulose (CMC) 101 % of control | dose: 200.0 mg/kg/injection, schedule: Q01DX001 (ip), vehicle: carboxymethylcellulose (CMC) 101 % of control | dose: 400.0 mg/kg/injection, schedule: Q01DX001 (ip), vehicle: carboxymethylcellulose (CMC) 97 % of control

Cc1[nH]c(=O)[nH]c(=O)c1NCCO
inactive: dose: 100.0 mg/kg/injection, schedule: Q01DX009 (ip), vehicle: water 91 % of control | dose: 100.0 mg/kg/injection, schedule: Q04DX003 (ip), vehicle: water 101 % of control | dose: 200.0 mg/kg/injection, schedule: Q01DX009 (ip), vehicle: water 96 % of control | dose: 200.0 mg/kg/injection, schedule: Q04DX003 (ip), vehicle: water 103 % of control | dose: 400.0 mg/kg/injection, schedule: Q01DX009 (ip), vehicle: water 102 % of control | dose: 400.0 mg/kg/injection, schedule: Q04DX003 (ip), vehicle: water 103 % of control

NS(=O)(=O)c1ccccc1
inactive: [2] 105 % of control | [3] 101 % of control | dose: 200.0 mg/kg/injection, schedule: Q04DX002 (ip), vehicle: saline 105 % of control | [4] 103 % of control | dose: 400.0 mg/kg/injection, schedule: Q04DX002 (ip), vehicle: saline 109 % of control | [5] 92 % of control

CC(=O)OC1CC2C(C(=O)O)C2C1OC(C)=O (stereo not drawn)
inactive: dose: 100.0 mg/kg/injection, schedule: Q01DX001 (ip), vehicle: saline with Tween-80 104 % of control | dose: 200.0 mg/kg/injection, schedule: Q01DX001 (ip), vehicle: saline with Tween-80 92 % of control | dose: 400.0 mg/kg/injection, schedule: Q01DX001 (ip), vehicle: saline with Tween-80 95 % of control

COc1cc(OC)c(NC(=O)NC(C)(C)C)cc1Cl
inactive: dose: 100.0 mg/kg/injection, schedule: Q01DX009 (ip), vehicle: Klucel (hydroxypropylcellulose) (HPC) 93 % of control | dose: 200.0 mg/kg/injection, schedule: Q01DX009 (ip), vehicle: Klucel (hydroxypropylcellulose) (HPC) 95 % of control | dose: 400.0 mg/kg/injection, schedule: Q01DX009 (ip), vehicle: Klucel (hydroxypropylcellulose) (HPC) 98 % of control

O=C(Nc1ccccc1)C(Br)c1ccccc1 (stereo not drawn)
inactive: [1] 91 % of control | dose: 200.0 mg/kg/injection, schedule: Q04DX003 (ip), vehicle: saline 90 % of control

CCCCCc1cc(O)c(C2CC(C)CCC2C(C)C)c(OC(=O)c2ccc([N+](=O)[O-])cc2[N+](=O)[O-])c1 (stereo not drawn)
inactive: [3] 104 % of control | [4] 88 % of control | [5] 88 % of control

N#Cc1cccc(C(Br)S(=O)(=O)c2ccccc2)c1 (stereo not drawn)
inactive: dose: 100.0 mg/kg/injection, schedule: Q04DX002 (ip), vehicle: Klucel (hydroxypropylcellulose) (HPC) 116 % of control | dose: 200.0 mg/kg/injection, schedule: Q04DX002 (ip), vehicle: Klucel (hydroxypropylcellulose) (HPC) 111 % of control | dose: 400.0 mg/kg/injection, schedule: Q04DX002 (ip), vehicle: Klucel (hydroxypropylcellulose) (HPC) 90 % of control
